In a melting point compilation (Tetko et al.):

Structure (SMILES) | melting point [°C]
Cc1ccnc(-n2cc(S(=O)(=O)Cl)cn2)c1 | 104 to 106
O=C(O)c1ccc(Cn2nnc3ccccc32)cc1 | 264 to 266
O=C(O)c1cc(-c2ccc(Cl)cc2)nc2ccccc12 | 244 to 246
COc1ccccc1S(N)(=O)=O | 169 to 171
O=C(O)c1cc(-c2ccccc2Cl)nc2ccccc12 | 273 to 275
CC(=O)c1cc([N+](=O)[O-])ccc1C | 50 to 52
CCn1c(SCC(=O)O)nnc1-c1cccc(C)c1 | 281 to 283
O=C(O)CCc1cc(F)ccc1F | 71 to 73
CC1CC(C)CN(S(=O)(=O)c2ccc(C(=O)O)cc2)C1 (configuration not stated) | 275 to 277
O=C(O)c1cc(-c2ccccn2)ccc1Cl | 215 to 217
CC(=O)c1cnn(-c2ccccc2)c1 | 124 to 126
Cc1cc(C(=O)O)cc(C)c1OCc1cccnc1 | 182 to 184
O=C(CCl)Nc1sc2c(c1C(=O)NCc1ccccc1)CCCC2 | 306 to 308
CC(=O)c1cc(C#N)c(S)nc1C | 127 to 129
Cn1cc(N2CCCC(Br)C2=O)cn1 (configuration not stated) | 121 to 123
Oc1ncncc1Br | 193 to 195
CC(C)(C)OC(=O)NC1CCN(C(=O)CC(F)(F)F)CC1 | 147 to 149
O=Cc1cccc(Br)c1O | 51 to 55
CCOC(=O)C(=O)c1c(C)[nH]c2ccccc12 | 127 to 129
CCOC(=O)c1nnc(N)s1 | 197 to 199
Clc1ccc(Cn2cc(Br)cn2)cc1 | 71 to 73
Cc1cccnc1NC(=O)C1CCCNC1 (configuration not stated) | 123 to 125
N#Cc1cc(N)cnc1N | 129 to 131
CCc1ncncc1C(=O)O | 155 to 157

Structure (SMILES) | melting point [°C]
O=C(CCl)NCc1ccccc1S(=O)(=O)N1CCCCC1 | 89 to 91
OC1CCCc2c[nH]nc21 (configuration not stated) | 107 to 109
Cc1cc(C)n(-c2ccccc2N)n1 | 81 to 83
CC(C)(C)OC(=O)Nc1ccc(CC(=O)N2CCNCC2)cc1 | 169 to 171
O=C(O)C1CCN(S(=O)(=O)c2ccc3c(c2)CCC3)CC1 | 170 to 172
Cc1nc(C(=O)O)c2ccccn12 | 187 to 189
Fc1ccc(-n2nc(CCl)c3c2CCC3)cc1 | 101 to 103
NS(=O)(=O)c1ccccc1S(=O)(=O)Cl | 179 to 181
Nc1cccc(N2C(=O)c3ccccc3C2=O)c1 | 189 to 191
CCC(=O)CNC(=O)CCl | 81 to 83
O=C1CNC(=O)N1CCCCl | 90 to 92
O=C(O)c1cncc2ccccc12 | 249 to 251
COc1ncc(N)cc1C(N)=O | 144 to 146
COc1ccc(CCC(C)(N)C(=O)O)cc1 (configuration not stated) | 303 to 305
NNC(=O)N1CCSCC1 | 129 to 131
O=C(O)C1=NOC(c2ccccc2)C1 (configuration not stated) | 102 to 104
Nc1ccc(S(=O)(=O)Nc2ccccc2)cc1 | 176 to 178
Nc1ncc(Br)cc1S(N)(=O)=O | 199 to 201
CCC1(C(C)C)NC(=O)NC1=O (configuration not stated) | 164 to 166
CCCCN(C(=O)CCl)c1c(N)n(CCC)c(=O)[nH]c1=O | 229 to 231
O=C(O)c1cccc(CN2CCS(=O)(=O)CC2)c1 | 230 to 232
CC(C)(C)OC(=O)N1CCN(C(N)=O)CC1 | 175 to 177
Cc1ccc(NC(=O)OCC(F)(F)F)s1 | 73 to 75
O=S(=O)(F)CC1CCOCC1 | 53 to 55

Structure (SMILES) | melting point [°C]
c1ccc(CCCc2nnn[nH]2)cc1 | 90 to 92
O=C(O)c1ccc2c(c1)COCO2 | 189 to 191
O=C(O)c1cc(CCc2ccccc2)ccc1O | 156 to 158
COc1cc(C(=O)O)cc([N+](=O)[O-])c1OC | 193 to 195
CNc1cc(F)ccc1[N+](=O)[O-] | 110 to 112
Nc1ncn(-c2ccccc2)n1 | 146 to 148
Nc1ccc(C(=O)NCC(F)(F)F)cc1 | 157 to 159
CCC(=O)c1ccc(C(=O)O)cc1 | 178 to 180
COc1ccc(C(=O)Nc2nc(C)cs2)cc1N | 164 to 166
O=C(O)Cc1cc(Cl)c2c(c1)OCCCO2 | 166 to 168
ClCc1cc2c(cc1Br)OCO2 | 62 to 66
Cc1cc(CC#N)no1 | 36 to 38
Cc1cc(C)nc(-n2nc(C)cc2N)n1 | 173 to 175
CC1(C)Cc2ccc(Cl)cc2C1O (configuration not stated) | 94 to 96
CS(=O)(=O)Cc1ccc(Cl)cc1N | 140 to 142
CC1Cc2ccccc2N1C(=O)CO (configuration not stated) | 75 to 77
COc1ccc(CC#N)c(Cl)c1OC | 55 to 57
c1cc2c(cn1)ncn2C1CC1 | 53 to 55
COc1ccc(C(=O)O)nc1Br | 232 to 234
Cc1cccc(N2N=C(C(=O)O)CCC2=O)c1 | 152 to 154
CC(C)C(Oc1ccc(Br)cc1)C(=O)O (configuration not stated) | 105 to 107
NC(=O)Cn1cc(N)cn1 | 159 to 161
Cc1cc(NS(=O)(=O)C(F)(F)F)ccc1C(=O)O | 169 to 171
Cc1nn(-c2ccccc2)c(Cl)c1CCl | 35 to 41
